Data published in patent publication US9198415B2, “Plant irrigation methods” (Syngenta Participations AG, priority 2010, dated 2015).
Marks after values point to notes of the source that are not given here.

Tests used:
Format in all cases: in vivo
Soybean plants [1] = assay: Soybean plants in pouches, drench application, severe drought stress, qualitative ranking of physiological state; details: for Plant physiological state: Desiccated (number of plants in %) / Plant physiological state: Slightly withered (number of plants in %) / Plant physiological state: Strongly withered (number of plants in %) / Plant physiological state: Turgescent (number of plants in %): evaluation 14 days after application
Protocol: Soybean plants were grown in pouches (in filter paper bags), and 100 plants each were treated with BION at 3 rates (60, 20, 2 ppm), added to the drench water. Sowing and drench application of BION occurred simultaneously. After 8 days of optimal growth, the pouches went dry and plants were grown for several days under severe drought stress conditions until evaluation (14 days after application). A qualitative assessment was carried out, ranking the plants behaviour into four categories corresponding to four different physiological states (turgescent, slightly withered, strongly withered and desiccated) (Table 1)

Soybean plants [2] = assay: Soybean plants in pouches, drench application, drought stress and rewatering, shoot dry weight; details: for Total Shoot Weight: 6 days drought, shoot dry weight 2 days after rewatering, 40 plants, untreated check 4.3 g
Protocol: Soybean plants were grown in pouches (in filter paper bags) and either BION or Thiamethoxam was applied to the water at different rates (see FIG. 2). Sowing and drench application of the compounds occurred simultaneously. After 8 days of optimal growth, the pouches went dry and plants were grown under drought stress conditions for 6 days. At the end of the drought period, plants were rewatered and shoot dry weight was determined 2 days later (Table 2). In total, 40 plants per treatment and 40 untreated check plants were assessed.

Corn plants = assay: Corn in 55-gal lysimeter containers, sub-surface chemigation, deficit water conditions, yield and root architecture; details: maximum labeled rate; for Yield (% difference from UTC): sub-surface chemigation at V3/V4, deficit water (50% plant-available water), 12 plants; for Relative number of fine roots (% difference from UTC): sub-surface chemigation at V3/V4, deficit water, measured within 2 weeks of harvest by digital imaging
Text: In this experiment, standardized growth conditions were applied across all corn treatments including: soil-water availability, soil texture and composition, soil chemical and physical properties, meteorological and environmental parameters, and plant nutrition in a greenhouse. No indication of plant disease or pest damage was observed over the course of the study and no pest management program was necessary. A homogeneous sand-organic matter soil mixture (0.18% organic matter) was used as the growth medium in 55-gal containers. These containers were used as a weighing lysimeter, where daily changes in system weight were used to calculate plant transpiration. Four corn plants were grown in each 55-gal container. Three 55-gal containers (12 plants total) made up each treatment. All irrigation and chemical treatments were applied via sub-surface irrigation. Chemical treatments consisted of: azoxystrobin (Quadris), paclobutrazol (Trimmit), trinexapac-ethyl (Moddus), and propiconazole (Tilt) at maximum labeled rates.
Corn plants were grown from seed and transplanted in the 55-gal drums approximately 14 days after planting. Uniform adequate irrigation was applied up to growth stage V3/V4 to ensure plant establishment. Chemical treatment applications were applied at growth stage V3/V4 via sub-surface chemigation. At stage V3/V4, irrigation was decreased to replicate deficit water conditions across all treatments for the remainder of the study period. Irrigation was managed daily to maintain 50% plant-available water. Visual signs of abiotic plant stress were observed approximately 30 days after chemical application. All corn plants were grown to yield and cobs were harvested when kernels were uniformly dry (15% moisture content). Root architecture, specifically relative number of fine roots, was measured at within 2 weeks of harvest using a digital imaging technique. Fine roots are related to water uptake productivity, which is directly tied to the ability of the plant to access soil-water under stress.
Effects of the chemical treatments via sub-surface irrigation on yield and root architecture were specifically documented. The effects are herein reported as the percentage increase compared to the untreated check (12 plants in three containers). […] Azoxystrobin, paclobutrazol, and trinexapac-ethyl were statistically different from the control (P values: <0.001 at the 95th percentile confidence interval).

[3] = 2 ppm in drench water, severe drought
[4] = 20 ppm in drench water, severe drought
[5] = 60 ppm in drench water, severe drought

CSC(=O)c1cccc2nnsc12 [ASM, S-methyl benzo[1,2,3]thiadiazole-7-carbothioate]
Plant physiological state: Desiccated (number of plants in %) (Soybean plants [1]; [3]): 0.0%
Plant physiological state: Slightly withered (number of plants in %) (Soybean plants [1]; [3]): 70.0%
Plant physiological state: Strongly withered (number of plants in %) (Soybean plants [1]; [3]): 5.0%
Plant physiological state: Turgescent (number of plants in %) (Soybean plants [1]; [3]): 25.0%
Plant physiological state: Desiccated (number of plants in %) (Soybean plants [1]; [4]): 5.3%
Plant physiological state: Slightly withered (number of plants in %) (Soybean plants [1]; [4]): 7.9%
Plant physiological state: Strongly withered (number of plants in %) (Soybean plants [1]; [4]): 2.6%
Plant physiological state: Turgescent (number of plants in %) (Soybean plants [1]; [4]): 84.2%
Plant physiological state: Desiccated (number of plants in %) (Soybean plants [1]; [5]): 0.0%
Plant physiological state: Slightly withered (number of plants in %) (Soybean plants [1]; [5]): 15.2%
Plant physiological state: Strongly withered (number of plants in %) (Soybean plants [1]; [5]): 0.0%
Plant physiological state: Turgescent (number of plants in %) (Soybean plants [1]; 60 ppm in drench water, severe drought, 100 plants): 84.8%
Treated plants still fully turgescent at the end of the drought period (Soybean plants [1]; dose not stated, severe drought): more than 80%
Behaviour of treated plants after severe drought compared to untreated check (Soybean plants [1]; qualitative): behaved much better after severe drought
Total Shoot Weight (Soybean plants [2]; 5 ppm in water): 4.1 g
Total Shoot Weight (Soybean plants [2]; 15 ppm in water): 5.6 g
Health of treated plants after drought compared to untreated check (Soybean plants [2]; qualitative, FIG. 1): behaved extremely healthy

CCOC(=O)C1CC(=O)C(=C(O)C2CC2)C(=O)C1 (stereo not drawn) [Trinexapac-ethyl]
Yield (% difference from UTC) (Corn plants): 15.6† %
Relative number of fine roots (% difference from UTC) (Corn plants): 34.3† %

CCCC1COC(Cn2cncn2)(c2ccc(Cl)cc2Cl)O1 (stereo not drawn) [Propiconazole]
Yield (% difference from UTC) (Corn plants): 3.3%
Relative number of fine roots (% difference from UTC) (Corn plants): 39.4† %

CN1COCN(Cc2cnc(Cl)s2)/C1=N\[N+](=O)[O-] [TMX]
Total Shoot Weight (Soybean plants [2]; 3 ppm in water): 4.6 g
Total Shoot Weight (Soybean plants [2]; 12 ppm in water): 5.8 g

CC(C)(C)[C@@H](O)[C@@H](Cc1ccc(Cl)cc1)n1cncn1 (racemic) [Paclobutrazol, (2RS,3RS)-1-(4-chlorophenyl)-4,4-dimethyl-2-(1H-1,2,4-triazol-1-yl)pentan-3-01]
Yield (% difference from UTC) (Corn plants): 16.6† %
Relative number of fine roots (% difference from UTC) (Corn plants): 70.0† %

CO/C=C(/C(=O)OC)c1ccccc1Oc1cc(Oc2ccccc2C#N)ncn1 [Azoxystrobin]
Yield (% difference from UTC) (Corn plants): 12.5† %
Relative number of fine roots (% difference from UTC) (Corn plants): 37.3† %
